Test results as given in US10034860B2, “Estrogen receptor modulator for the treatment of locally advanced or metastatic estrogen receptor positive breast cancer” (Genentech, Inc., priority 2013, dated 2018).

Columns and labels:
breast cancer cell lines = test: breast tumor cell proliferation; format: cell-based
[1] = tested on: ER and Ki-67 levels in tumor specimens; test: Phase I clinical trial: tumor biopsies, ER and Ki-67 levels; design: species or system postmenopausal women; settings: in vivo
Source text: Pre- and post-treatment tumor biopsies (soft tissue or visceral lesions) will be collected to evaluate: • Tumor Histology; tumor vs. stroma, vs fibrotic tissue • ERα and PR protein levels by immunohistochemistry or immunofluorescence • Proliferative Index (Ki67) • ER target gene modulation: Examples of ER target genes thay maybe monitored include, but are not limited to: AGR2, AREG, C3, CCND1, CXCL12, ERBB2, GREB1, IL6, IRS1, PDZK1, PGR, SEMA3B, TFF1, TFF2, TFF3, TOP2A, WISP2. Circulating Tumor DNA (ctDNA)
(§1) A preliminary analysis of the first 41 patients enrolled in the Phase I study described in Example 1 was conducted. 41 patients were enrolled in the Phase I portion of the study, across 9 different dose escalation cohorts. The patients were postmenopausal women with advanced or metastatic breast cancer that had previously relapsed or progressed following prior therapy with the aromatase inhibitors anastrozole, exemestane, and letrozole (90%), chemotherapy (68%), including capecitabine (27%), tamoxifen (54%), fulvestrant (41%), everolimus (19%), and also other investigational agents (17%).

[2] = design: species or system postmenopausal women; settings: in vivo
Method: If the safety and PK profile seen in the Phase I (dose escalation) portion of the study are deemed favorable to justify further continuation of the study, dose escalation will be followed by an expansion cohort to further confirm safety and tolerability and assess preliminary evidence of antitumor activity (Phase IIa).
as §1

[3] = tested on: xenograft models of ER+ breast cancer; test: tamoxifen-sensitive and tamoxifen-resistant xenograft models of ER+ breast cancer; format: in vivo
oral bioavailability = settings: in vivo
[4] = tested on: advanced or metastatic ER+ (HER2−) breast cancer; test: Phase I clinical trial: safety and clinical benefit; format: in vivo
Source text: The MTD and/or RP2D will be defined as the dose with ≤1 out of 6 patients with Dose Limiting Toxicity (DLT). Dose Limiting Toxicity (DLT) Definition: Any Grade ≥3 non-hematology toxicity (excluding alopecia); Any Grade ≥3 hematology toxicity >7 days; Any Grade toxicity that leads to study drug interruption >7 days.
Disease assessments will be performed. Imaging studies will include a CT scan of the chest, abdomen, and pelvis, plus a bone scan. Radiographic confirmation of objective tumor response or disease progression will be based on RECIST v1.1 (Eisenhauer, 2009). For new bone lesions detected on bone scans, a second imaging modality (e.g., CT or MRI) will be required to confirm progression.
as §1

| SMILES | breast tumor cell proliferation (breast cancer cell lines) | ER and Ki-67 levels in tumor specimens [1] | dose at which target plasma concentrations were achieved ([2]; female, human) [mg QD] | pharmacokinetic profile ([2]; po) | tolerability ([3]; all doses, xenograft models) | efficacious dose range ([3]; all xenograft models) [mg/kg/day] | anti-tumor activity ([3]; tamoxifen-sensitive and tamoxifen-resistant xenograft models) | oral bioavailability (oral bioavailability) | safety and tolerability ([4]; 41 patients, progressed on a median of 4 prior treatments) | preliminary overall clinical benefit rate ([4]; all patients, preliminary analysis) [%] | preliminary clinical benefit rate ([4]; patients previously treated with fulvestrant) [%] | efficacy compared with the acrylic acid compound ([3]; tamoxifen-resistant xenograft models) |
| --- | --- | --- | --- | --- | --- | --- | --- | --- | --- | --- | --- | --- |
| CC/C(=C(/c1ccc(/C=C/C(=O)O)cc1)c1ccc2[nH]ncc2c1)c1ccc(F)cc1Cl [(E)-3-(4-((E)-2-(2-chloro-4-fluorophenyl)-1-(1H-indazol-5-yl)but-1-en-1-yl)phenyl)acrylic acid] | inhibition of breast tumor cell proliferation | reduced | ≥ 600 | linear and dose proportional | very well tolerated | 10 to 100 | dose dependent anti-tumor activity | good oral bioavailability | safe and well tolerated | 42 | 35 | – |
| C[C@]12CC[C@@H]3c4ccc(O)cc4C[C@@H](CCCCCCCCC[S+]([O-])CCCC(F)(F)C(F)(F)F)[C@H]3[C@@H]1CC[C@@H]2O (stereo partly drawn) [fulvestrant, reference compound] | – | – | – | – | – | – | – | – | – | – | – | less efficacious |
